Columns and labels:
[1] = molecular target: Rho-associated protein kinase 2 (Homo sapiens) (UniProt O75116); assay: Inhibition of human ROCK2 at 500 nM by HotSpot assay relative to control
[2] = molecular target: T1, Mitogen-activated protein kinase 12 (Homo sapiens) (UniProt P53778); assay: Inhibition of human P38g at 500 nM by HotSpot assay relative to control
T1 sequence (whole entry): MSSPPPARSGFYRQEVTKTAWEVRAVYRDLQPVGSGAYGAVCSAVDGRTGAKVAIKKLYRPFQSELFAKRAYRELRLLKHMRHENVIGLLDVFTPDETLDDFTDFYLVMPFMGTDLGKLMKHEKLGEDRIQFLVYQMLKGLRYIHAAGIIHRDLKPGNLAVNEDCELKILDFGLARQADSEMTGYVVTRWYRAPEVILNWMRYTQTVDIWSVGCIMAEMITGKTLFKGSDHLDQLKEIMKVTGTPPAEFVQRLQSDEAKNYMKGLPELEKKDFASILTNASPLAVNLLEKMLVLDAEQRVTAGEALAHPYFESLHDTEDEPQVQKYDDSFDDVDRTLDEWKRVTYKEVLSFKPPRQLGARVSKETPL

[3] = molecular target: Wee1-like protein kinase (Homo sapiens) (UniProt P30291); assay: Inhibition of human WEE1 at 500 nM by HotSpot assay relative to control
Wee1-like protein kinase (Homo sapiens), sequence (P30291 whole entry, looked up): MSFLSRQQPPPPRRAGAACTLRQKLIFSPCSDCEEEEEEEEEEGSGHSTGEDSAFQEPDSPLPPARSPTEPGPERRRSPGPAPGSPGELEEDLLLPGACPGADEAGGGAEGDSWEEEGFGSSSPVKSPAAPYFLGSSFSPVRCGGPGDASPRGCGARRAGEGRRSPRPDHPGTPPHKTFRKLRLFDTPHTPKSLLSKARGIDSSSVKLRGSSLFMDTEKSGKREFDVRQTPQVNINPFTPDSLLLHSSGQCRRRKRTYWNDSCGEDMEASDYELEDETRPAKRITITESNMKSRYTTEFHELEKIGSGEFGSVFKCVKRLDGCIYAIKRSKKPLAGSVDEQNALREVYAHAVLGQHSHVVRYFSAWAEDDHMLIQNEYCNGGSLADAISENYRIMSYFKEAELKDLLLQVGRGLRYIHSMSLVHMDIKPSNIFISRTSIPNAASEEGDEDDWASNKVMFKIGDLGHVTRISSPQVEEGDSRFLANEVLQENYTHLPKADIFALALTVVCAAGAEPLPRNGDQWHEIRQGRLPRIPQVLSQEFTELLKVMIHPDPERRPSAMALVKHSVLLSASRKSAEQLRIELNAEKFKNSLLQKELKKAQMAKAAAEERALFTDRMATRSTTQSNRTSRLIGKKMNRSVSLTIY

[4] = molecular target: T2, Serine/threonine-protein kinase TAO1 (Homo sapiens) (UniProt Q7L7X3); assay: Inhibition of human TAOK1 at 500 nM by HotSpot assay relative to control
T2 sequence (whole entry): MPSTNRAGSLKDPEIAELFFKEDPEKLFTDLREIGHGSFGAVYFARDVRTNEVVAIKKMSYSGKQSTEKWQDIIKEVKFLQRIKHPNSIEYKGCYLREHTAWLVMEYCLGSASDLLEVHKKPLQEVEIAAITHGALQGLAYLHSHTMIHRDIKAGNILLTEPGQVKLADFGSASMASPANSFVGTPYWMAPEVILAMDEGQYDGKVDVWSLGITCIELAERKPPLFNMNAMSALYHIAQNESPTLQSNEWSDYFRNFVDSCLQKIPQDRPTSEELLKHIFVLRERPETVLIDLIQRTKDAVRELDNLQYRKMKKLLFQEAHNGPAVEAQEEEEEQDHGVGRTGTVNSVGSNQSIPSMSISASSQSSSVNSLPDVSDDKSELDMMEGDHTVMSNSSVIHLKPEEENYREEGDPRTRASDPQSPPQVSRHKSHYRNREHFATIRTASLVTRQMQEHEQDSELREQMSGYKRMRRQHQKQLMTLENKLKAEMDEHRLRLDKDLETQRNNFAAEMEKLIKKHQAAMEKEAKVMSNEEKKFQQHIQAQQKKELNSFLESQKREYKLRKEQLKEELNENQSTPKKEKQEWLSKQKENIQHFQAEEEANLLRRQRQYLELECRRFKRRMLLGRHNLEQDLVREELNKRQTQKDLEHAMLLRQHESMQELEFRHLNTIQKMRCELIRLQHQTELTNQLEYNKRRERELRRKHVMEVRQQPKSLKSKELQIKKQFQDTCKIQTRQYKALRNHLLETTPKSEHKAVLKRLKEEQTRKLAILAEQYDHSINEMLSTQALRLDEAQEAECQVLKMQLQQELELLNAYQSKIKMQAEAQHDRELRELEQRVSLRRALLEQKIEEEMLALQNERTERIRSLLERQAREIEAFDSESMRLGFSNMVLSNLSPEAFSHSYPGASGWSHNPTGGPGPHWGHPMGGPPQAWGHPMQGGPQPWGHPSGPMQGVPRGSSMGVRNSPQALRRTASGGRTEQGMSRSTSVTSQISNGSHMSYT

[5] = molecular target: Mitogen-activated protein kinase 10 (Homo sapiens) (UniProt P53779); assay: Inhibition of human JNK3 at 500 nM by HotSpot assay relative to control
Mitogen-activated protein kinase 10 (Homo sapiens), sequence (P53779 whole entry): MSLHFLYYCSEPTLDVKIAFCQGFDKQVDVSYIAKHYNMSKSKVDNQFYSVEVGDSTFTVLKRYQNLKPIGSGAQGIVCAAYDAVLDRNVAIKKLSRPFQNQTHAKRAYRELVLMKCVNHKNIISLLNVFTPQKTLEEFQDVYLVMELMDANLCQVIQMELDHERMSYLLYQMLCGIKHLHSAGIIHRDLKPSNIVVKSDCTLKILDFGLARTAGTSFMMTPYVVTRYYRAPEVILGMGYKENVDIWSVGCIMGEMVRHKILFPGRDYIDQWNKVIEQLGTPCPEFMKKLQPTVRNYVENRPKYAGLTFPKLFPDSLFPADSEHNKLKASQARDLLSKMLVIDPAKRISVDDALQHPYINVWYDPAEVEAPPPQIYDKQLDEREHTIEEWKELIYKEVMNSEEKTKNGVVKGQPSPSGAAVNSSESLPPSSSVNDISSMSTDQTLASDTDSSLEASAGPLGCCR

[6] = molecular target: T3, Serine/threonine-protein kinase Nek11 (Homo sapiens) (UniProt Q8NG66); assay: Inhibition of human NEK11 at 500 nM by HotSpot assay relative to control
T3 sequence (whole entry): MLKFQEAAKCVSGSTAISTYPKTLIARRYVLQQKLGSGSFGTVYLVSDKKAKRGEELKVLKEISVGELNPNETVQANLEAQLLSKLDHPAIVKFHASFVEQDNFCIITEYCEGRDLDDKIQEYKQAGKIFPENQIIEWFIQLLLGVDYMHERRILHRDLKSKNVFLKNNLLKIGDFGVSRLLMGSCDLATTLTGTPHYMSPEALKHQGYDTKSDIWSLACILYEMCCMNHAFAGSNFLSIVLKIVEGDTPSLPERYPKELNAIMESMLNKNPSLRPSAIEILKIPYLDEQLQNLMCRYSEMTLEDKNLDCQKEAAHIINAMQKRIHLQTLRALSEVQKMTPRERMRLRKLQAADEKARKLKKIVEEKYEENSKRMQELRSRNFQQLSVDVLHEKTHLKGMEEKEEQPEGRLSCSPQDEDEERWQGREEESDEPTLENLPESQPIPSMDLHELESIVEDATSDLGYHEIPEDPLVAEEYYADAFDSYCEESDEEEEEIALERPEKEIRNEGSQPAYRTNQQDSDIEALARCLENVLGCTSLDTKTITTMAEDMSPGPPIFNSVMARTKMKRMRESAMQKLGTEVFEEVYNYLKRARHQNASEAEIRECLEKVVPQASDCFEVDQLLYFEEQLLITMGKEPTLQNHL

[7] = molecular target: Protein kinase C gamma type (Homo sapiens) (UniProt P05129); assay: Inhibition of human PKCg at 500 nM by HotSpot assay relative to control
[8] = molecular target: T4, Homeodomain-interacting protein kinase 4 (Homo sapiens) (UniProt Q8NE63); assay: Inhibition of human HIPK4 at 500 nM by HotSpot assay relative to control
T4 sequence (whole entry): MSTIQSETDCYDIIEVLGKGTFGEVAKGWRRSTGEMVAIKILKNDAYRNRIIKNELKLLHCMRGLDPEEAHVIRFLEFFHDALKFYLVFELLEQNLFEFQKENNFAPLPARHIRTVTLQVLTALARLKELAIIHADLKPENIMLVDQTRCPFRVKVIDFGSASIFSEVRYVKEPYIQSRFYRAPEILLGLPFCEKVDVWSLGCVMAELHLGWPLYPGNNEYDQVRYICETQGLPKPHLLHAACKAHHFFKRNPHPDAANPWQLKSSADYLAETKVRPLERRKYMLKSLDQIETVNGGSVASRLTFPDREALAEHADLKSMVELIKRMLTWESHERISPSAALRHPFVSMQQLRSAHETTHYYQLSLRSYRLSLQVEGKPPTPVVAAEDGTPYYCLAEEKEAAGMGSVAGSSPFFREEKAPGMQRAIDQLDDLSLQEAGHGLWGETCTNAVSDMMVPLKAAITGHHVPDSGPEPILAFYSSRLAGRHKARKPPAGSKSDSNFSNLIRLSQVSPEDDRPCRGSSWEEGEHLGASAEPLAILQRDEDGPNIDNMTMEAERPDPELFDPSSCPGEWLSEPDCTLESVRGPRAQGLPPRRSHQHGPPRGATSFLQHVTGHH

Rho-associated protein kinase 2 (Homo sapiens), sequence (O75116 whole entry, looked up): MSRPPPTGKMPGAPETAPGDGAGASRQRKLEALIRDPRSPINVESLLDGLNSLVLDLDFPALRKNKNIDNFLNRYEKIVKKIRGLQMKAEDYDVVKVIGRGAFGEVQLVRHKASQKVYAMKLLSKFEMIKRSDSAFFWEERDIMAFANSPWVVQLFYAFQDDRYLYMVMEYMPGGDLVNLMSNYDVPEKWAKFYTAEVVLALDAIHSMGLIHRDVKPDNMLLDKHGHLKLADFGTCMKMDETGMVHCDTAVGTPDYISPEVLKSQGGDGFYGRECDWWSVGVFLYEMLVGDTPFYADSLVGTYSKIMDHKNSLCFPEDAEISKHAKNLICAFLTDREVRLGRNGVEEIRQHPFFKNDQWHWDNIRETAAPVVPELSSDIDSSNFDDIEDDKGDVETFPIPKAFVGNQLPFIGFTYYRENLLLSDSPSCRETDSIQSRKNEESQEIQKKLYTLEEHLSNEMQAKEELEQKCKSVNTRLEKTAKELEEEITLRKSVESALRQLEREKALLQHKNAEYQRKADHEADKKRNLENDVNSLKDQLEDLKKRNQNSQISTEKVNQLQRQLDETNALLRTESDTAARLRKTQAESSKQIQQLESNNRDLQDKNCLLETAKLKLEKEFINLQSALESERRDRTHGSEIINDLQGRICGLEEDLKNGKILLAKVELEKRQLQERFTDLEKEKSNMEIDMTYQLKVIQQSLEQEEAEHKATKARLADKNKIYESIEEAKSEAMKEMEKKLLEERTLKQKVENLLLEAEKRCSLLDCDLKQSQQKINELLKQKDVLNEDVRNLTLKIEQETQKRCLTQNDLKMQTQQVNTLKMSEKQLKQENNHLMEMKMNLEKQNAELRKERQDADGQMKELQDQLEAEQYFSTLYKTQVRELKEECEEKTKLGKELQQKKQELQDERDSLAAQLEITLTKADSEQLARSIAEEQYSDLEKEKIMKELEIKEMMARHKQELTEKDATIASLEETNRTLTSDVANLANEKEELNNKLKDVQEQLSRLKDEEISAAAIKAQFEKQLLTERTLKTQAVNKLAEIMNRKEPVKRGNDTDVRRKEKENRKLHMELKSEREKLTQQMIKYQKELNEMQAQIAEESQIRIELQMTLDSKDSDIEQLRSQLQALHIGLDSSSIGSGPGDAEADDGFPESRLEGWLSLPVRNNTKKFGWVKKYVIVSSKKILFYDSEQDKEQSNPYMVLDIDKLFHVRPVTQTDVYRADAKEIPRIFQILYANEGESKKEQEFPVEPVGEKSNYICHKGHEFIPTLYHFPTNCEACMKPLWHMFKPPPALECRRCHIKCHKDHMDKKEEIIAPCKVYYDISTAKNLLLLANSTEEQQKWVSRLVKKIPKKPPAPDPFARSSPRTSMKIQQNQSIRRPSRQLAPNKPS

Compound	inhibition [1]	inhibition [2]	inhibition [3]	inhibition [4]	inhibition [5]	inhibition [6]	inhibition [7]	inhibition [8]
Nc1n[nH]c2nnc(-c3c(-c4ccccc4)nn4ccccc34)cc12	10.4%	-3.94%	7.57%	4.2%	-3.19%	4.86%	-2.64%	4.73%
Oc1n[nH]c2nnc(-c3c(-c4ccccc4)nn4ccccc34)cc12	0.7%	-4.33%	20.8%	1.61%	5.98%	-4.37%	-2.44%	9.6%

Reference: ChEMBL document CHEMBL5653615 (J Biol Chem, 2013)
